Experimental data: patent US5670530A, “Anti-cancer composition comprising rhodacyanine compound and cyclodextrin” (Fuji Photo Film Co., Ltd., priority 1995, dated 1997)
Each block holds one compound with its values, some of them ahead of it.

Legend:
[1] = Solubility of rhodacyanine compounds in human serum at 37° C.
[2] = system: human colon carcinoma cells (CX-1); test: Tumor inhibition in nude mice implanted with human colon carcinoma cells CX-1 (Example 8); assay type: in vivo, human cells in nude mouse (Swiss nu/nu); conditions: for Tumor Inhibition: day 1, 2, 4, 6, 7, 8, 9
Experimental: 2,500,000 human colon carcinoma cells (CX-1) were injected subcutaneously into each nude mouse (Swiss nu/nu) obtained from Taconic Farm and the mice were randomly allocated into a control group (five mice) and treatment groups (five mice per group).
The anti-cancer compositions containing HP-β-CD were prepared using the following method. HP-β-CD (45 g) was mixed with 100 ml of sterilized, double distilled water and stirred for four hours. Each of the compounds to be tested (20 mg) was mixed with 10 ml of HP-β-CD solution and sonicated for 60 minutes in the dark. This solution was then diluted in 5% glucose to yield a final compound concentration of 0.5 mg/ml, and further sonicated for 60 minutes in the dark to assure that the compound was completely dissolved. The anti-cancer compositions not containing HP-β-CD were also prepared using the same method except that 5% glucose solution was used instead of the HP-β-CD solution.
The control group received an equivalent volume of 5% glucose solution.
When the growth of tumors in the control group reached the exponential phase and the size of the tumor was palpable (usually 20 to 30 days after tumor implantation), the experiments were terminated. Tumors in each mouse were excised and weighed using an analytical balance. Total tumor weight in each group from five mice was calculated. Per cent tumor inhibition between the treated group and the control group was then calculated for each group.

[3] = Solubility of Compound 1 in aqueous solution containing various solubilizers (Example 1); assay type: physicochemical; conditions: for solubility at 24 h: 25° C.
Experimental: Solubilizers, β-CD, polyethylene glycol 400 and Pluronic F60, were added to demineralized water respectively to prepare solutions having concentrations shown in TABLE 1. […] The test tubes were fixed in thermostatic bath controlled at 25° C. and allowed to stand for 24 hours.

[4] = Solubility of Compound 1 in fetal calf serum with HP-β-CD (Example 2); assay type: physicochemical; conditions: HP-β-CD 0 to 45 w/v %, 30 minutes, 25° C.
Experimental: (§1) Solutions of HP-β-CD in demineralized water having concentrations varying from 0 w/v % to 45 w/v % were prepared as described in EXAMPLE 1. […] The results obtained are shown graphically in FIGS. 1 and 2.

[5] = Precipitation of Compound 1 in rat blood with HP-β-CD (Example 5); assay type: physicochemical; conditions: HP-β-CD concentration increases
[6] = Solubility of Compound 1 in aqueous solutions of β-CD, HP-β-CD and γ-CD (Example 3); assay type: physicochemical
[7] = Solubility of Compound 1 in rat serum with HP-β-CD (Example 2); assay type: physicochemical; conditions: HP-β-CD 0 to 45 w/v %, 30 minutes, 25° C.
Experimental: as §1

[8] = Solubility of Compounds 2, 4 and 5 in aqueous solution containing various cyclodextrin compounds (Example 4); assay type: physicochemical; conditions: for Solubility in water with cyclodextrin compounds: β-CD, HP-β-CD, γ-CD
Experimental: as §1
Aqueous solutions of β-CD, HP-β-CD and γ-CD were prepared and solubility of Compounds 2, 4 and 5 in each of the aqueous solutions having the concentration varing as shown in TABLE 2 was determined as described in EXAMPLE 2. For the purpose of comparison, solubility of Compounds 2, 4 and 5 in water was also determined.

human melanoma LOX = test: Survival of nude mice implanted with human melanoma LOX (Example 9); assay type: in vivo, human cells in nude mice

SMILES: CCn1c(=CC2=[N+](CC)CCS2)sc(=C2Sc3ccccc3N2C)c1=O
solubility [1]: > 1000 µg/mL

SMILES: CCn1c(=Cc2sc3c4ccccc4ccc3[n+]2CC)sc(=CC=C2Sc3ccc4ccccc4c3N2C)c1=O [Compound 1]
Tumor Inhibition ([2]; 2 mg/kg i.p., HP-β-CD added): 48.8% | Tumor Inhibition ([2]; 2 mg/kg i.p., HP-β-CD non-added): 29.1% | Tumor Inhibition ([2]; 4 mg/kg i.p., HP-β-CD added): 30.2% | Tumor Inhibition ([2]; 4 mg/kg i.p., HP-β-CD non-added): 20.9% | tumor inhibition, with vs without HP-β-CD ([2]; solution containing HP-β-CD vs no HP-β-CD): higher tumor inhibition than that containing no HP-β-CD | solubility at 24 h ([3]; water only): 1860 µg/mL | solubility at 24 h ([3]; water, peg 400 50%, organic solvent or mixture, Polyethylene glycol 400, 50 w/v %): 870 µg/mL | solubility at 24 h ([3]; water, Pluronic F60 0.02 w/v %): 3230 µg/mL | solubility at 24 h ([3]; water, Pluronic F60 0.2 w/v %): 3130 µg/mL | solubility at 24 h ([3]; water, β-CD 1.5 w/v %): 8170 µg/mL | increase of solubility in water by β-CD ([3]; β-CD vs compound itself in water): 4.4 times | Compound 1 dissolved in serum (FIGS. 1 and 2) [4]: much dissolved in the serums, depending on the increase in HP-β-CD concentration | precipitation of Compound 1 in blood [5]: effectively inhibited | Solubility in water with cyclodextrins (FIG. 3) ([6]; β-CD, HP-β-CD and γ-CD): all cyclodextrin compounds used improve solubility of Compound 1 in water | Solubility in water with γ-CD (FIG. 3) ([6]; γ-CD): γ-CD greatly improves the solubility | Compound 1 dissolved in serum (FIGS. 1 and 2) [7]: much dissolved in the serums, depending on the increase in HP-β-CD concentration

SMILES: CCn1c(=C2CCC[n+]3c2sc2ccccc23)sc(=C2Sc3ccccc3N2C)c1=O [Compound 4]
Solubility in aqueous solution of CD ([8]; HP-β-CD 4.2 mM/dl): 0.03 mM/dl | Solubility in water [8]: 0.001 mM/dl | Solubility in water with cyclodextrin compounds [8]: improved by all of the cyclodextrin compounds used

SMILES: CCn1c(=Cc2sc3c4ccccc4ccc3[n+]2CC)sc(=C2Sc3ccc4ccccc4c3N2C)c1=O [Compound 5]
Solubility in water [8]: ~ 0 mM/dl | Solubility in water with cyclodextrin compounds [8]: improved by all of the cyclodextrin compounds used | Solubility in aqueous solution of CD ([8]; γ-CD 1.0 mM/dl): 0.02 mM/dl

SMILES: CCn1c(=Cc2oc3ccccc3[n+]2CC)sc(=C2Sc3ccccc3N2C)c1=O [Compound 7]
T/C (human melanoma LOX; 10 mg/kg i.p., HP-β-CD added, day 1, 4, 8, 12, 16, 21, 25): 200% | T/C (human melanoma LOX; 10 mg/kg i.p., HP-β-CD non-added, day 1, 4, 8, 12, 16, 21, 25): 175%

SMILES: CCN1C(=CC=c2sc(=Cc3cc[n+](CC)c4ccccc34)n(CC)c2=O)C=Cc2ccccc21 [Compound 8]
T/C (human melanoma LOX; 20 mg/kg i.p., HP-β-CD added, day 1, 2, 3, 4, 8, 9): 227% | T/C (human melanoma LOX; 20 mg/kg i.p., HP-β-CD non-added, day 1, 2, 3, 4, 8, 9): 183%

SMILES: CCN1C(=CC=c2sc(=CC3=[N+](CC)CCS3)n(CC)c2=O)C=Cc2ccccc21 [drawing 16]
solubility [1]: < 100 µg/mL

SMILES: CCn1c(=Cc2sc3c4ccccc4ccc3[n+]2CC)sc(=CC=C2Sc3ccc4ccccc4c3N2C)c1=O [drawing 21]
solubility [1]: < 100 µg/mL

The next lines start with results.

solubility [1]: > 1000 µg/mL
SMILES: CCn1c(=CC2=[N+](CC)CCS2)sc(=C2SC3=C(CCCC3)N2C)c1=O

solubility [1]: > 1000 µg/mL
SMILES: CCn1c(=Cc2scc(C)[n+]2CC)sc(=C2Sc3ccccc3N2C)c1=O

solubility [1]: 300 µg/mL
SMILES: CN1C(=c2sc(=Cc3oc4ccccc4[n+]3C)n(C)c2=O)Sc2ccccc21

solubility [1]: < 1000 µg/mL
SMILES: CCn1c(=Cc2sc3ccccc3[n+]2CC)sc(=CC=C2SC=C(C)N2C)c1=O

solubility [1]: < 100 µg/mL
SMILES: CCn1c(=Cc2oc3c4ccccc4ccc3[n+]2CC)sc(=C2Sc3ccccc3N2C)c1=O

Solubility in water [8]: 0.03 mM/dl | Solubility in aqueous solution of CD ([8]; β-CD 0.80 mM/dl): 0.55 mM/dl
SMILES: CCN1C(=CC=c2sc(=CC3=[N+](CC)CCS3)n(CC)c2=O)C=Cc2ccccc21 [Compound 2]
Solubility in water with cyclodextrin compounds [8]: improved by all of the cyclodextrin compounds used

solubility [1]: < 100 µg/mL
SMILES: CCn1c(=Cc2oc3ccccc3[n+]2CC)sc(=C2Sc3ccccc3N2C)c1=O [drawing 17]

solubility [1]: < 100 µg/mL
SMILES: CCN1C(=CC=c2sc(=Cc3cc[n+](CC)c4ccccc34)n(CC)c2=O)C=Cc2ccccc21 [drawing 20]
